Data: patent US20160074297A1, “COMBINATION OF PETROSELINIC ACID AND TAURINE FOR ORAL ADMINISTRATION FOR HAIR AGING CONTROL” (NUTRICOS TECHNOLOGIES, priority 2013, published 2016)

Test system: human mononuclear cells
Assay: Production of lipoxin A4 in human mononuclear cells in vitro stimulated with PMA/A23187 plus DHA/EPA, quantified by LC-MS
Type: cell-based
Settings: coriander oil 0.25 mg/ml, taurine 3.1 mg/ml; 30 minutes pre-incubation, then 2 hours of stimulation with phorbol myristate 0.05 μM, calcium ionophore 1 μM, DHA and EPA 1 μg/mL; cell supernatant
Procedure: Mononuclear blood cells are cultured under 5% CO2 and at 37° C. in a serum-free medium for macrophages (SFM Macrophage; Invitrogen 12065074) for 24 hours. […] The inflammatory response was then triggered in the presence of phorbol myristate (0.05 μM) and calcium ionophore (1μM) and a lipid substrate mixture composed of docosahexaenoic acid (DHA−1 μg/mL) and eicosapentaenoic acid (EPA-1μg/mL). The supernatants were then collected after 2 hours of stimulation and frozen at −80° C. before preparation for analysis by mass spectrometry. Experimental triplicates (three wells) were prepared per experimental condition. Into each culture plate was placed a control corresponding to cells stimulated with the PMA/A23187 mixture and/or with addition of the equimolar mixture of fatty acids. The frozen supernatants were concentrated by solid-phase extraction (SPE) and taken up in methanol before spectrometric analysis. The analytical method used consists in separating the various analytes by high-pressure liquid chromatography as a function of their retention time and in quantifying them by mass spectrometry. The analyses were performed using an LC 1290 Infinity chain (Agilent Technologies) coupled to a 6460 Triple Quad LC/MS mass spectrometer (Agilent Technologies) equipped with an electrospray ionization source (Jet stream technology) operating in negative mode. […]

## NCCS(=O)(=O)O [Taurine]
  Level of lipoxin A4 production (% modulation relative to the control): +38%
